The values that follow come from patent US8455648B2, “1-(7-(hexahydropyrrolo [3,4-c] pyrrol-2 (1H)-yl) quinolin-4-yl) -3- (pyrazin-2-yl) urea derivatives and related compounds as glycogen synthase kinase 3 (GSK-3)” (Abbott GmbH & Co. KG, priority 2008, dated 2013).

As a reminder, the IC50 is the concentration at which inhibition is half-maximal.

In this assay the target is T1, human Glycogen Synthase Kinase-3 beta (hGSK-3β) (Homo sapiens, UniProt P49841).
T1 construct: purchased Upstate cell signaling solutions
T1 sequence (P49841 whole entry): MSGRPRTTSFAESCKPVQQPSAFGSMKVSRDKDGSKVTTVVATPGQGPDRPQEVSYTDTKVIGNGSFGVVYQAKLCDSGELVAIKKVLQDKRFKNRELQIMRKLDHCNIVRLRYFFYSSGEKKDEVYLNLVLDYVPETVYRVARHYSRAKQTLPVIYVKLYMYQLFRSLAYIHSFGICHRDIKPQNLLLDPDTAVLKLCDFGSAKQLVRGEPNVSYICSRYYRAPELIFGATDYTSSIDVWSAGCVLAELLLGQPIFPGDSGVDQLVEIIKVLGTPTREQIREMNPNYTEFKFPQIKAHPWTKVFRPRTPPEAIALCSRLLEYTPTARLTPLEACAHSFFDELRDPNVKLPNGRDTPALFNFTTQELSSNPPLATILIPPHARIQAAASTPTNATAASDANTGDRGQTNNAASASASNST
The assay can be described thus: Biochemical hGSK-3beta assay (33P-ATP phosphorylation of biotinylated peptide substrate). Particulars: 10 μM ATP, 1 μM substrate, 30 minutes at room temperature; read-out: GSK-3β IC50. The procedure:
Methods—Biochemical hGSK-3Beta Assay
Compounds were tested for their ability to inhibit human Glycogen Synthase Kinase-3 beta (hGSK-3β) to phosphorylate biotin-[…](pS)EDEEE. Compounds were incubated with 0.5 μCi 33P-ATP, 10 μM ATP, 0.0125U hGSK-3β (Upstate cell signaling solutions) and 1 μM substrate (biotin-[…](pS)EDEEE) in 50 mM HEPES, 10 mM MgCl2, […], 1 mM DTT, 0.0075% Triton, 2% DMSO (total volume 50 μL) for 30 minutes at room temperature. The incubation was stopped by addition of an equal volume of 100 mM EDTA, 4M NaCl. 80 μL of this mixture was added to streptavidin-coated Flashplates (PerkinElmer). Following a wash step, 33P incorporation was quantified on a MicroBeta microplate liquid scintillation counter (PerkinElmer). IC50s were determined by fitting a sigmoidal dose-response curve to the counts obtained at the different concentrations in GraphPad Prism.
Consider `CC(C)(C)OC(=O)N1C[C@@H]2CN(c3ccc4c(NC(=O)Nc5cnccn5)ccnc4c3)C[C@@H]2C1` [Example 1, (3aR,6aS)-Tert-butyl 5-(4-(3-pyrazin-2-ylureido)quinolin-7-yl)-hexahydropyrrolo[3,4-c]pyrrole-2(1H)-carboxylate], for which the IC50 was 100 to 10000 nM.

As to `COc1ccc2c(NC(=O)Nc3cncc(N4C[C@H]5CN(C(=O)OC(C)(C)C)C[C@H]5C4)n3)ccnc2c1` [Example 3, (3aR,6aS)-tert-butyl 5-(6-(3-(7-methoxyquinolin-4-yl)ureido)pyrazin-2-yl)-hexahydropyrrolo[3,4-c]pyrrole-2(1H)-carboxylate], the IC50 lay within 100 to 10000 nM.

For `O=C(Nc1cnccn1)Nc1ccnc2cc(N3C[C@@H]4C[C@H]3CN4)ccc12` [Example 7, 1-(7-((1S,4S)-2,5-Diazabicyclo[2.2.1]heptan-2-yl)quinolin-4-yl)-3-(pyrazin-2-yl)urea], the IC50 is 100 to 10000 nM.

For the molecule `COc1ccc2c(NC(=O)Nc3cccc(N4CC5COCC5C4)n3)ccnc2c1` (stereo not shown) [Example 9, 1-(6-(Dihydro-1H-furo[3,4-c]pyrrol-5(3H,6H,6aH)-yl)pyridin-2-yl)-3-(7-methoxyquinolin-4-yl)urea], the IC50 was under 100 nM.

Turning to `COc1ccc2c(NC(=O)Nc3cccc(N4C[C@@H]5C[C@H]4CO5)n3)ccnc2c1` [Example 10, 1-(6-((1S,4S)-2-Oxa-5-azabicyclo[2.2.1]heptan-5-yl)pyridin-2-yl)-3-(7-methoxyquinolin-4-yl)urea], the IC50 was under 100 nM.

Regarding `CC(C)(C)OC(=O)N1C[C@@H]2C[C@H]1CN2c1ccc2nccc(NC(=O)Nc3cnccn3)c2c1` [Example 11, (1S,4S)-Tert-butyl 5-(4-(3-pyrazin-2-ylureido)quinolin-6-yl)-2,5-diazabicyclo[2.2.1]heptane-2-carboxylate], the IC50 was 100 to 10000 nM.

On to `O=C(Nc1cnccn1)Nc1ccnc2cc(N3CC4CCNC4C3)ccc12` (stereo not shown) [Example 12, 1-(7-(Hexahydropyrrolo[3,4-b]pyrrol-5(1H)-yl)quinolin-4-yl)-3-(pyrazin-2-yl)urea], for which the IC50 was in the range of 100 to 10000 nM.
